# Results: publication PMC10482975 (Nature Communications, 2023)
# How the values were obtained:
# [1] = target: T1, M3 mAChR WT (Homo sapiens, UniProt P20309); assay: [3H]-NMS radioligand dissociation binding, M3 mAChR WT; details: M3 mAChR
# T1 construct: expressed in transfected cells
# Method: (§1) Flp-In Chinese hamster ovary (CHO) (Thermo Fisher Scientific) cells stably expressing mAChR WTs or mutant constructs were cultured in Dulbecco’s modified Eagle’s medium (DMEM, Invitrogen) containing 5% foetal bovine serum (FBS; ThermoTrace) and […] of hygromycin (Roche) in a humidified incubator (37 °C, 5% CO2). Upon reaching confluence, media was removed, cells were washed with phosphate buffered saline (PBS) and harvested from tissue culture flasks using versene (PBS with 0.2 g EDTA). Cells were then pelleted through centrifugation at 350 × g for three minutes followed by resuspension in DMEM + 5% FBS. Cells were then either plated for an assay or reseeded into a tissue culture flask.
# [2] = target: T2, M2 mAChR WT (Homo sapiens, UniProt P08172); assay: [3H]-NMS radioligand dissociation binding, M2 mAChR WT
# T2 construct: expressed in transfected cells
# T2 sequence (P08172 1-466): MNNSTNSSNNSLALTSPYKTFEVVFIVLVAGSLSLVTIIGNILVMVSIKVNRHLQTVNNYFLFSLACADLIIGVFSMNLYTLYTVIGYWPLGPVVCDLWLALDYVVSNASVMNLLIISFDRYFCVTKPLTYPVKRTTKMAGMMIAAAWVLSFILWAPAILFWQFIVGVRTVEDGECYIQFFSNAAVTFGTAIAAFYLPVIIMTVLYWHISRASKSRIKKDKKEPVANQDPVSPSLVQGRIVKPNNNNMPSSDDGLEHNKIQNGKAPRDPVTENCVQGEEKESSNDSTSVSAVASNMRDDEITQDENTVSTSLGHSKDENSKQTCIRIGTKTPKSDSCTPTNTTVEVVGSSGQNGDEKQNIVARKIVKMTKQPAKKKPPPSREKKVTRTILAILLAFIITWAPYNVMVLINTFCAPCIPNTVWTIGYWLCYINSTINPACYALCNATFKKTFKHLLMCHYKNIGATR
# Method: as §1
# [3] = target: T3, M5 mAChR WT (Homo sapiens, UniProt P08912); assay: [3H]-NMS radioligand dissociation binding, M5 mAChR WT
# T3 construct: expressed in transfected cells
# T3 sequence (P08912 1-532): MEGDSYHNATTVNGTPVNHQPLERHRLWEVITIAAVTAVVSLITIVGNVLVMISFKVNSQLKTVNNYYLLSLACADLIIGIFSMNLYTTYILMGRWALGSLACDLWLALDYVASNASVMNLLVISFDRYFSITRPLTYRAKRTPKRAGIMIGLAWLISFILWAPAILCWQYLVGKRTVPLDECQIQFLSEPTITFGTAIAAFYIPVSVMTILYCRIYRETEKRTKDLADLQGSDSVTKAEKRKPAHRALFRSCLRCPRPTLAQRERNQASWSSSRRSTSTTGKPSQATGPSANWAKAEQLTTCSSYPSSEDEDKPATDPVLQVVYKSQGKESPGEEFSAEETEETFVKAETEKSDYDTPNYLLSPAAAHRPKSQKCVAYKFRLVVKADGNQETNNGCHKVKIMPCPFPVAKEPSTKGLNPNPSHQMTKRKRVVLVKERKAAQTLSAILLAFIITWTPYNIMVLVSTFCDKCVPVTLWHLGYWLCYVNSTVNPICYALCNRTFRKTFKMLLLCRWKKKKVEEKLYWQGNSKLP
# Method: as §1
# [4] = target: T4, M4 mAChR WT (Homo sapiens, UniProt P08173); assay: [3H]-NMS radioligand dissociation binding, M4 mAChR WT; details: for [3H]-NMS binding remaining (0 min = 100), MEAN: M4 mAChR
# T4 construct: expressed in transfected cells
# T4 sequence (P08173 1-479): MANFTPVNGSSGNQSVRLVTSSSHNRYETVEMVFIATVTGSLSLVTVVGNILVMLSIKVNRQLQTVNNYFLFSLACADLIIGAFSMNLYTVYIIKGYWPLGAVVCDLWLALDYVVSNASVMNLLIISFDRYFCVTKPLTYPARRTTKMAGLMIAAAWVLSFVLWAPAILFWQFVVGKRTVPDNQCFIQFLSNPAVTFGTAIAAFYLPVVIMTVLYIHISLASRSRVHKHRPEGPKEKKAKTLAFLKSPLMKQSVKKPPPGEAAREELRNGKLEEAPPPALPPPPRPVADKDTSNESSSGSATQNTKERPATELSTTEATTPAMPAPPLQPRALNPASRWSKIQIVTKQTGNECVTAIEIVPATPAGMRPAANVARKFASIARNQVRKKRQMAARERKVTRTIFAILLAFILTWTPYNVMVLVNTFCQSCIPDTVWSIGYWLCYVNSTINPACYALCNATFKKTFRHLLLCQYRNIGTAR
# Method: as §1
# [5] = 10uM Atr + 30uM LY2033, 120 min
# [6] = 10uM Atr + 30uM LY2033, 210 min
# [7] = 10uM Atr + 10 μM Iperoxo, 10 min
# [8] = 10uM Atr + 10 μM Iperoxo, 15 min
# [9] = 10uM Atr + 10 μM Iperoxo, 30 min
# [10] = 10uM Atr + 10 μM Iperoxo, 90 min
# [11] = 10uM Atr + 10 μM Iperoxo, 120 min
# [12] = 10uM Atr + 10 μM Iperoxo, 210 min
# T1 sequence (P20309 whole entry): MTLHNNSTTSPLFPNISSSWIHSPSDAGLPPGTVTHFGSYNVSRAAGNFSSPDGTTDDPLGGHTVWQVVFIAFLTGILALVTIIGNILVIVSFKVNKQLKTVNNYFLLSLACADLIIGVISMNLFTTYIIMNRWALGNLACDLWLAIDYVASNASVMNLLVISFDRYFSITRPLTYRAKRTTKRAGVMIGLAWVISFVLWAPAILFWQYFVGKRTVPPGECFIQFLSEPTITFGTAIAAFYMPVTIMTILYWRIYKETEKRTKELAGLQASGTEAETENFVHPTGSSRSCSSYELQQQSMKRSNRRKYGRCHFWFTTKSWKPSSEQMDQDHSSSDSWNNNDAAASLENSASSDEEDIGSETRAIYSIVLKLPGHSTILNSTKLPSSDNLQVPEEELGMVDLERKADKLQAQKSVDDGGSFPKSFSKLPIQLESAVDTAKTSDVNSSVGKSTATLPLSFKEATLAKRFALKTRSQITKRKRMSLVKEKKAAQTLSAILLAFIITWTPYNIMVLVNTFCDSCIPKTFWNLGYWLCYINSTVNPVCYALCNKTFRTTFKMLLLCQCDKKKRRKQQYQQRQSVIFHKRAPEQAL
structure (smiles),measurement,setting,value
COc1nc2sc(C(=O)NC3CC3)c(N)c2c(C)c1Cl [LY2033298],"[3H]-NMS binding remaining (0 min = 100), MEAN","[1]; 10uM Atr + 30uM LY2033, 10 min",96.1336
same,"[3H]-NMS binding remaining (0 min = 100), MEAN","[1]; 10uM Atr + 30uM LY2033, 15 min",101.345
same,"[3H]-NMS binding remaining (0 min = 100), MEAN","[1]; 10uM Atr + 30uM LY2033, 30 min",103.79
same,"[3H]-NMS binding remaining (0 min = 100), MEAN","[1]; 10uM Atr + 30uM LY2033, 90 min",88.3999
same,"[3H]-NMS binding remaining (0 min = 100), MEAN",[1]; [5],77.6461
same,"[3H]-NMS binding remaining (0 min = 100), MEAN",[1]; [6],65.167
same,"[3H]-NMS binding remaining (0 min = 100), MEAN","[2]; 10uM Atr + 30uM LY2033, 5 min",100.231
same,"[3H]-NMS binding remaining (0 min = 100), MEAN","[2]; 10uM Atr + 30uM LY2033, 10 min",104.86
same,"[3H]-NMS binding remaining (0 min = 100), MEAN","[2]; 10uM Atr + 30uM LY2033, 15 min",105.465
same,"[3H]-NMS binding remaining (0 min = 100), MEAN","[2]; 10uM Atr + 30uM LY2033, 30 min",97.2904
same,"[3H]-NMS binding remaining (0 min = 100), MEAN","[2]; 10uM Atr + 30uM LY2033, 40 min",99.7247
same,"[3H]-NMS binding remaining (0 min = 100), MEAN","[2]; 10uM Atr + 30uM LY2033, 60 min",83.2953
same,"[3H]-NMS binding remaining (0 min = 100), MEAN","[2]; 10uM Atr + 30uM LY2033, 90 min",74.9771
same,"[3H]-NMS binding remaining (0 min = 100), MEAN","[3]; 10uM Atr + 30uM LY2033, 10 min",102.761
same,"[3H]-NMS binding remaining (0 min = 100), MEAN","[3]; 10uM Atr + 30uM LY2033, 15 min",100.045
same,"[3H]-NMS binding remaining (0 min = 100), MEAN","[3]; 10uM Atr + 30uM LY2033, 30 min",98.0655
same,"[3H]-NMS binding remaining (0 min = 100), MEAN","[3]; 10uM Atr + 30uM LY2033, 90 min",75.4577
same,"[3H]-NMS binding remaining (0 min = 100), MEAN",[3]; [5],66.5441
same,"[3H]-NMS binding remaining (0 min = 100), MEAN",[3]; [6],53.7527
same,"[3H]-NMS binding remaining (0 min = 100), MEAN","[4]; 10uM Atr + 10uM LY2033, 30 min",112.685
same,"[3H]-NMS binding remaining (0 min = 100), MEAN","[4]; 10uM Atr + 10uM LY2033, 60 min",100.725
same,"[3H]-NMS binding remaining (0 min = 100), MEAN","[4]; 10uM Atr + 10uM LY2033, 90 min",100.81
same,"[3H]-NMS binding remaining (0 min = 100), MEAN","[4]; 10uM Atr + 10uM LY2033, 180 min",78.3598
same,"[3H]-NMS binding remaining (0 min = 100), MEAN","[4]; 10uM Atr + 10uM LY2033, 300 min",57.1596
same,"[3H]-NMS binding remaining (0 min = 100), MEAN","[4]; 10uM Atr + 30uM LY2033, 30 min",97.9955
same,"[3H]-NMS binding remaining (0 min = 100), MEAN","[4]; 10uM Atr + 30uM LY2033, 90 min",92.0634
same,"[3H]-NMS binding remaining (0 min = 100), MEAN","[4]; 10uM Atr + 30uM LY2033, 180 min",80.808
same,"[3H]-NMS binding remaining (0 min = 100), MEAN","[4]; 10uM Atr + 30uM LY2033, 300 min",69.858
C[N+](C)(C)CC#CCOC1=NOCC1 [iperoxo],"[3H]-NMS binding remaining (0 min = 100), MEAN",[1]; [7],100.4
same,"[3H]-NMS binding remaining (0 min = 100), MEAN",[1]; [8],96.8554
same,"[3H]-NMS binding remaining (0 min = 100), MEAN",[1]; [9],79.7803
same,"[3H]-NMS binding remaining (0 min = 100), MEAN",[1]; [10],45.8424
same,"[3H]-NMS binding remaining (0 min = 100), MEAN",[1]; [11],38.0708
same,"[3H]-NMS binding remaining (0 min = 100), MEAN",[1]; [12],19.3493
same,"[3H]-NMS binding remaining (0 min = 100), MEAN","[2]; 10uM Atr + 10 μM Iperoxo, 5 min",84.1199
same,"[3H]-NMS binding remaining (0 min = 100), MEAN",[2]; [7],57.067
same,"[3H]-NMS binding remaining (0 min = 100), MEAN",[2]; [8],42.2975
same,"[3H]-NMS binding remaining (0 min = 100), MEAN",[2]; [9],18.0197
same,"[3H]-NMS binding remaining (0 min = 100), MEAN","[2]; 10uM Atr + 10 μM Iperoxo, 40 min",11.4621
same,"[3H]-NMS binding remaining (0 min = 100), MEAN","[2]; 10uM Atr + 10 μM Iperoxo, 60 min",5.852
same,"[3H]-NMS binding remaining (0 min = 100), MEAN",[2]; [10],5.287
same,"[3H]-NMS binding remaining (0 min = 100), MEAN",[3]; [7],98.7473
same,"[3H]-NMS binding remaining (0 min = 100), MEAN",[3]; [8],104.707
same,"[3H]-NMS binding remaining (0 min = 100), MEAN",[3]; [9],92.7543
same,"[3H]-NMS binding remaining (0 min = 100), MEAN",[3]; [10],56.424
same,"[3H]-NMS binding remaining (0 min = 100), MEAN",[3]; [11],46.6348
same,"[3H]-NMS binding remaining (0 min = 100), MEAN",[3]; [12],27.5139
same,"[3H]-NMS binding remaining (0 min = 100), MEAN",[4]; [9],88.7252
same,"[3H]-NMS binding remaining (0 min = 100), MEAN",[4]; [10],52.6732
same,"[3H]-NMS binding remaining (0 min = 100), MEAN","[4]; 10uM Atr + 10 μM Iperoxo, 180 min",31.8571
same,"[3H]-NMS binding remaining (0 min = 100), MEAN","[4]; 10uM Atr + 10 μM Iperoxo, 300 min",17.3639
same,effect on [3H]-NMS dissociation (in words),"[4]; wild-type M4 mAChR, increasing concentrations of xanomeline, saturating concentration of iperoxo",had no effect
